Measurements as given in ChEMBL document CHEMBL1955740, “Structure-based virtual screening approach to the discovery of p38 MAP kinase inhibitors” (Bioorg Med Chem Lett, 2012).

Experiments:
[1] = biological target: T1, Mitogen-activated protein kinase 14 (Homo sapiens, UniProt Q16539); test: Inhibition of MAPK p38alpha assessed as activity remaining at 50 uM relative to control
[2] = biological target: T1, Mitogen-activated protein kinase 14; test: Inhibition of MAPK p38alpha

T1 sequence (Q16539 whole entry): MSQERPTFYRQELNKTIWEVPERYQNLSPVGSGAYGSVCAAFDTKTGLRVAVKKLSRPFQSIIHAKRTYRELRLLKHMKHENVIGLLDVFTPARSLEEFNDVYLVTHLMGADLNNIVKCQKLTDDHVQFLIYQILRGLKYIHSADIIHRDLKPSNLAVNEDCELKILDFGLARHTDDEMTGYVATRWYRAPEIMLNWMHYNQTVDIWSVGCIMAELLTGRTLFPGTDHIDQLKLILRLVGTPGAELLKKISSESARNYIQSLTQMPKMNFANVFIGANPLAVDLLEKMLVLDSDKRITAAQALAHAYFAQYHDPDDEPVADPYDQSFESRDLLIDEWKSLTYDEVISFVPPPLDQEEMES

Row | Compound | Activity [1] | IC50 [2]
1 | Nc1nc(Nc2ccccc2)sc1C(=O)c1ccccc1 | 8.1% | 0.72 µM
2 | CCn1cc(/C=C2/Oc3c(ccc(O)c3CN3CCOCC3)C2=O)c2ccccc21 | 37% | > 30 µM
3 | O=C1c2ccccc2C(=O)N1CCc1nc2c3c(-c4ccco4)c(-c4ccco4)oc3ncn2n1 | 39% | > 30 µM
4 | Cn1cc(/C=C2/C(=O)NC(=O)N(CCc3ccccc3)C2=O)c2ccccc21 | 32% | 17.1 µM
5 | Cc1cccc(-c2nc(Nc3ccc(C(=O)O)cc3)c3ccccc3n2)c1 | 34% | 20.4 µM
6 | NC(=O)c1ccc(Nc2nnc(-c3ccc(O)cc3)c3ccccc23)cc1 | 41% | > 30 µM
